Experiments:
[1] = target: T1, soluble guanylate cyclase (Sus scrofa, UniProt A0A4X1U7N1+A0ACM8Q7I6); assay: Stimulation of soluble guanylate cyclase in primary endothelial cells (intracellular cGMP, radioimmunological); assay type: cell-based; conditions: 10 min, test substance 1 μM, primary endothelial cells from pig aorta, NOSYNTH, stimulation buffer with or without NO donor (SNP 1 μM), read-out: % cGMP increase (NOSYNTH)
T1 construct: endogenous in cells; host or cells: primary endothelial cells from pig aorta
T1 sequence (A0A4X1U7N1 1-619): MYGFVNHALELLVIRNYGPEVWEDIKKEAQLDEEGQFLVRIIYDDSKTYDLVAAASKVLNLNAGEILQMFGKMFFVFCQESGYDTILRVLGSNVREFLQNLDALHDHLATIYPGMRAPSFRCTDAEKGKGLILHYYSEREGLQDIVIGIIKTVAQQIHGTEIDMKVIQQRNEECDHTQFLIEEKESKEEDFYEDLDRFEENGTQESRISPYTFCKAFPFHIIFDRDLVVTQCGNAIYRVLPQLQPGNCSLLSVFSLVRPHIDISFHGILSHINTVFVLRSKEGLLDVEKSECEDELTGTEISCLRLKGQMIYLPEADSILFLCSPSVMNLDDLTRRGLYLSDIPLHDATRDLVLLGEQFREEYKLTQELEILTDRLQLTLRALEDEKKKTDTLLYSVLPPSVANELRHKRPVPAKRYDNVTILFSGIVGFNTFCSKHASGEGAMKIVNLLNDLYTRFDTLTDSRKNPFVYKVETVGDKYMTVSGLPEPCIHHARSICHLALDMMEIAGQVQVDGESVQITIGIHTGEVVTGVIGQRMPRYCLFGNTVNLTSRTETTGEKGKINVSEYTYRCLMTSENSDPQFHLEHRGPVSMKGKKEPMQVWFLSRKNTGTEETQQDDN
T1 sequence (A0ACM8Q7I6 1-688): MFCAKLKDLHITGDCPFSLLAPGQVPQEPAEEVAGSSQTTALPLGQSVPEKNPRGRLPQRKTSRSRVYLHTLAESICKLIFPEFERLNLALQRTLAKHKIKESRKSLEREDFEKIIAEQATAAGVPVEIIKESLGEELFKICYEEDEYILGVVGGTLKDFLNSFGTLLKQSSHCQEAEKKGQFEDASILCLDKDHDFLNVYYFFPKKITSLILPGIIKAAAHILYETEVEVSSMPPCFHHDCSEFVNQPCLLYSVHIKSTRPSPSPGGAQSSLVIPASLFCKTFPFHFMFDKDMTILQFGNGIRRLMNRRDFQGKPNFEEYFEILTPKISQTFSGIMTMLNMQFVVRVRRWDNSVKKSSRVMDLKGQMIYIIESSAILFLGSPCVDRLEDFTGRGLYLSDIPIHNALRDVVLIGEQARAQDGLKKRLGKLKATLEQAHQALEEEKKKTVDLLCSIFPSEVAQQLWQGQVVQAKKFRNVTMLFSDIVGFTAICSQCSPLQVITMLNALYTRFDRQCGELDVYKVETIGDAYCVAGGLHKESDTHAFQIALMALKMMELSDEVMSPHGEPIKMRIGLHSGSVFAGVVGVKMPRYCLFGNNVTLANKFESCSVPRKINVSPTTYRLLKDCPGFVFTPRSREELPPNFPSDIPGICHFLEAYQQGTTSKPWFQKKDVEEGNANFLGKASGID
Method: (§1) To determine the cardiovascular action, the following investigations were carried out: in in vitro investigations on cells of vascular origin, the influence on guanylate cyclase-dependent cGMP formation was tested with and without NO donors. The vasorelaxant action was determined on rabbit aorta rings precontracted with phenylephrine. The hypotensive action was investigated in anaesthetized rats.
Stimulation of Soluble Guanylate Cyclase in Primary Endothelial Cells
Primary endothelial cells were isolated from pig aortas by treatment with collagenase soln. The cells were then cultured in culture medium until confluence was achieved. For the investigations, the cells were passaged, inoculated into cell culture plates and subcultured until confluence was achieved. To stimulate the endothelial guanylate cyclase, the culture medium was aspirated and the cells were washed once with Ringer's solution and incubated in stimulation buffer with or without NO donor (sodium nitroprusside, SNP, 1 μM). Following this, the test substances (final concentration 1 μM) were then pipetted onto the cells. After the end of the incubation time of 10 minutes, the buffer solution was aspirated and the cells were lysed at -20° C. for 16 hours. The intracellular cGMP was then determined radioimmunologically.

anaesthetized rats = assay: Blood pressure measurements on anaesthetized rats; assay type: in vivo; conditions: anaesthetized male Wistar rats; for Max. blood pressure decrease: time 60 min
Method: as §1
Blood Pressure Measurements on Anaesthetized Rats
Male Wistar rats having a body weight of 300-350 g are anaesthetized with thiopental (100 mg/kg i.p.). After tracheotomy, a catheter is inserted in the femoral artery for blood pressure measurement. The substances to be tested are administered orally in various doses as a suspension in Tylose solution by means of stomach tube.

rabbit aorta rings = assay: Vasorelaxant action in vitro (aorta rings precontracted with phenylephrine); conditions: Oryctolagus cuniculus; isolated rabbit aorta, phenylephrine contraction, 37° C., reduction of control contraction by 50%; read-out: Aorta IC 50
Method: as §1
Vasorelaxant Action in vitro
1.5 mm wide rings of an isolated rabbit aorta are placed individually under a pretension into 5 ml organ baths containing carbogen-aerated Krebs-Henseleit solution at a temperature of 37° C. The contractile force is amplified and digitalized, and recorded in parallel on a linear recorder. To generate a contraction, phenylephrine is added to the bath cumulatively in increasing concentration.
After several control cycles, the substance to be investigated is investigated in each further passage in increasing dose in each case and the contraction is compared with the height of the contraction achieved in the last previous passage. From this, the concentration is calculated which is necessary to reduce the height of the control value by 50% (IC50). The standard administration volume is 5 μl.

Row | SMILES | activation at 1 µM [1] [%] | IC50 (rabbit aorta rings) [µM] | Time (of max. blood pressure decrease table) (anaesthetized rats; 10 mg/kg oral) [min] | Max. blood pressure decrease (anaesthetized rats; 10 mg/kg oral) [mm Hg] | Time (of max. blood pressure decrease table) (anaesthetized rats; 30 mg/kg oral) [min] | Max. blood pressure decrease (anaesthetized rats; 30 mg/kg oral) [mm Hg]
1 | OCc1ccc(-c2nn(Cc3ccccc3F)c3ccccc23)o1 [Example 1, 1-(2-Fluorobenzyl)-3-(5-hydroxymethylfuran-2-yl)-indazole] | > 1000 | 4.1 | 60 | -14 | 60 | -18
2 | OCc1ccc(-c2nn(Cc3ccccc3F)c3cc(F)ccc23)o1 [Example 7] | 734 | – | – | – | – | –
3 | COc1cccc(Cn2nc(-c3ccc(CO)o3)c3ccccc32)c1 [Example 2] | 72 | – | – | – | – | –
4 | OCc1ccc(-c2nn(Cc3ccc(F)cc3)c3ccccc23)o1 [Example 3] | 250 | 16 | – | – | – | –
5 | COc1cccc(Cn2nc(-c3ccc(CO)o3)c3ccc(F)cc32)c1 [Example 8] | 28 | – | – | – | – | –
6 | OCc1ccc(-c2nn(Cc3cccc(F)c3)c3ccccc23)o1 [Example 4] | 413 | 9.2 | – | – | – | –

Second part, led by results:

Row | activation at 1 µM [1] [%] | IC50 (rabbit aorta rings) [µM] | SMILES | Time (of max. blood pressure decrease table) (anaesthetized rats; 10 mg/kg oral) [min] | Max. blood pressure decrease (anaesthetized rats; 10 mg/kg oral) [mm Hg] | Time (of max. blood pressure decrease table) (anaesthetized rats; 30 mg/kg oral) [min] | Max. blood pressure decrease (anaesthetized rats; 30 mg/kg oral) [mm Hg]
7 | 14 | – | OCc1ccc(-c2nn(Cc3ccccc3)c3ccccc23)s1 [Example 11] | – | – | – | –
8 | 238 | – | Cc1ccc(-c2nn(Cc3ccccc3)c3ccccc23)o1 [Example 10] | – | – | – | –
9 | > 906 | 10 | OCc1ccc(-c2nn(Cc3ccccc3)c3ccccc23)o1 [Example 14, reference compound] | 60 | -10 | 60 | -18
